Key:
human PLK4 = biological target: T1, human PLK4 (Homo sapiens, UniProt O00444); test: PLK4 inhibition assay (indirect ELISA); format: biochemical; settings: 15 μM ATP
T1 construct: amino terminal GST fusion of residues 1-391 of human PLK4; made in house; host or cells: E. coli
T1 sequence (O00444 1-391): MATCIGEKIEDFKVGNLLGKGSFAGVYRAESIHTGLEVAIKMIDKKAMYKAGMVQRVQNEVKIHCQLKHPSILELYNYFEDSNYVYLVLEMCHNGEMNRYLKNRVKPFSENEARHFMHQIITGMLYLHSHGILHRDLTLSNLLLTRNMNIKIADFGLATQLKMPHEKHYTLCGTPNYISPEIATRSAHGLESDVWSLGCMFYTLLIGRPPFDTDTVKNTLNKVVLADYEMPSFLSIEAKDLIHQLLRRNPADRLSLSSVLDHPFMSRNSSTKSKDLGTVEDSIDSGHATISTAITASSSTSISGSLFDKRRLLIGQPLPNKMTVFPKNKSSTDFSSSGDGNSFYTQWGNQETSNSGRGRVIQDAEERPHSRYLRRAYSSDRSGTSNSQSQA
Description: Active PLK4 was purified from an E. coli expression system as an amino terminal GST fusion of residues 1-391 of human PLK4. The protein was purified from clarified cell extracts after induction at 15° C. overnight using glutathione sepharose, gel permeation chromatography, and ion exchange (Resource Q). The resulting protein was dephosphorylated with lambda phosphatase (NEB cat# P0753), and resolved from the phosphatase using gluthione sepharose. The dephosphorylated GST-PLK4 was stored in aliquots at −80° C. until use.
PLK4 activity was measured using an indirect ELISA detection system. Dephosphorylated GST-PLK4 (4 nM) was incubated in the presence of 15 μM ATP (Sigma cat# A7699), 50 mM HEPES-[…] pH 7.4, 10 mM MgCl2, 0.01% Brij 35 (Sigma cat# 03-3170), in a 96 well microtitre plate pre-coated with MBP (Millipore cat#30-011). The reaction was allowed to proceed for 30 minutes, followed by 5 washes of the plate with Wash Buffer (50 mM TRIS-Cl pH 7.4 and 0.2% Tween 20), and incubation for 30 minutes with a 1:3000 dilution of primary antibody (Cell Signaling cat# 9381). The plate was washed 5 times with Wash Buffer, incubated for 30 minutes in the presence of secondary antibody coupled to horse radish peroxidase (BioRad cat# 1721019, 1:3000 concentration), washed an additional 5 times with Wash Buffer, and incubated in the presence of TMB substrate (Sigma cat# T0440). The colourimetric reaction was allowed to continue for 5 minutes, followed by addition of stop solution (0.5 N sulphuric acid), and quantified by detection at 450 nm with either a monochromatic or filter based plate reader (Molecular Devices M5 or Beckman DTX880, respectively).
Compound inhibition was determined at either a fixed concentration (10 μM) or at a variable inhibitor concentration (typically 50 μM to 0.1 μM in a 10 point dose response titration). Compounds were pre-incubated in the presence of enzyme for 15 minutes prior to addition of ATP and the activity remaining quantified using the above described activity assay. The % Inhibition of a compound was determined using the following formula: % Inhibition=100×(1−(experimental value−background value)/(high activity control−background value)). The IC50 value was determined using a non-linear 4 point logistic curve fit (XLfit4, IDBS) with the formula: (A+(B/(1+((x/C)^D)))), where A=background value, B=range, C=inflection point, D=curve fit parameter.

[1] = test system: colon cancer cells (HCT116); test: Cancer cell line growth inhibition (SRB assay); format: cell-based; settings: Homo sapiens, HCT-116; HCT116 colon cancer cells, SRB assay; read-out: Cancer Cell Line GI50 Range HCT116
[2] = test system: ovarian cancer cells (PA-1); test: Cancer cell line growth inhibition (SRB assay); format: cell-based; settings: PA-1 ovarian cancer cells, SRB assay; read-out: Cancer Cell Line GI50 Range PA-1
Description: Breast cancer cells (MDA-MB-231), colon cancer cells (HCT116) and ovarian cancer cells (PA-1) were seeded (1000 to 4000 in 80 μl per well depending on the cell growth rate) into 96 well plates 24 hours before compound overlay. Compounds were prepared as 10 mM stock solutions in 100% DMSO which were diluted with DMEM (Dulbecco's Modified Eagle's Medium) cell growth Medium (Invitrogen, Burlington, ON, Canada) containing 10% FBS (Fetal Bovine Serum) to concentrations ranging from 50 nM to 250 μM. Aliquots (20 μl) from each concentration were overlaid to 80 μl of the pre-seeded cells in the 96 well plates to make final concentrations of 10 nM to 50 μM. The cells were cultured for 5 days before the Sulforhodamine B assay (SRB) was performed to determine the compound's cell growth inhibition activity.
Sulforhodamine B (purchased from Sigma, Oakville, ON, Canada) is a water-soluble dye that binds to the basic amino acids of the cellular proteins. Thus, colorimetric measurement of the bound dye provides an estimate of the total protein mass that is related to the cell number. the cells are fixed in situ by gently aspirating off the culture media and adding 50 μl ice cold 10% Trichloroacetic Acid (TCA) per well and incubate at 4° C. for 30-60 min. The plates are washed with H2O five times and allowed to air dry for 5 min. Addition of 50 μl 0.4% (w/v) SRB solution in 1% (v/v) acetic acid to each well and incubation for 30 min at RT completes the staining reaction. Following staining, plates are washed four times with 1% acetic acid to remove unbound dye and then allowed to air dry for 5 min. The stain is solubilized with 100 μl of 10 mM Tris pH 10.5 per well. Absorbance is read at 570 nm.
The percentage (%) of relative growth inhibition was calculated by comparing to DMSO treated only cells (100%). GI50's were determined for compounds with cytotoxic activity. The GI50 was calculated using GraphPad PRISM software (GraphPad Software, Inc., San Diego, Calif., USA).

SMILES	IC50 (human PLK4) [nM]	GI50 [1] [nM]	GI50 [2] [nM]
CN1CCC(Oc2ccc(-c3n[nH]c4ccc(NC(=O)C(c5ccsc5)N5CCCC5)cc34)cc2)CC1 (stereo not shown) [Example A7, N-(3-(4-((1-methylpiperidin-4-yl)oxy)phenyl)-1H-indazol-5-yl)-2-(pyrrolidin-1-yl)-2-(thiophen-3-yl)acetamide]	< 50	–	–
O=C(Nc1ccc2[nH]nc(-c3ccc4c(c3)OCO4)c2c1)C(c1ccsc1)N1CCCC1 (stereo not shown) [Example A14, N-(3-(benzo[d][1,3]dioxol-5-yl)-1H-indazol-5-yl)-2-(pyrrolidin-1-yl)-2-(thiophen-3-yl)acetamide]	< 50	> 500	–
O=C(Nc1ccc2[nH]nc(-c3ccc4c(c3)OCCO4)c2c1)C(c1ccsc1)N1CCCC1 (stereo not shown) [Example A15, N-(3-(2,3-dihydrobenzo[b][1,4]dioxin-6-yl)-1H-indazol-5-yl)-2-(pyrrolidin-1-yl)-2-(thiophen-3-yl)acetamide]	< 50	> 500	–
O=C(Nc1ccc2[nH]nc(-c3ccc(OC4CCNCC4)c(Cl)c3)c2c1)C(c1ccsc1)N1CCCC1 (stereo not shown) [Example A34, N-(3-(3-chloro-4-(piperidin-4-yloxy)phenyl)-1H-indazol-5-yl)-2-(pyrrolidin-1-yl)-2-(thiophen-3-yl)acetamide]	< 50	< 100	–
O=C(Nc1ccc2[nH]nc(-c3ccc(OCCCN4CCOCC4)cc3)c2c1)C(c1ccsc1)N1CCCC1 (stereo not shown) [Example A45, N-(3-(4-(3-morpholinopropoxy)phenyl)-1H-indazol-5-yl)-2-(pyrrolidin-1-yl)-2-(thiophen-3-yl)acetamide]	< 50	< 100	–
C[C@@H]1CN(c2ccc(-c3n[nH]c4ccc(NC(=O)C(c5ccsc5)N5CCCC5)cc34)cc2)C[C@H](C)O1 (stereo partly drawn) [Example A50, N-(3-(4-((2S,6R)-2,6-dimethylmorpholino)phenyl)-1H-indazol-5-yl)-2-(pyrrolidin-1-yl)-2-(thiophen-3-yl)acetamide]	< 50	< 100	–
CN1CCC(Oc2ccc(-c3n[nH]c4ccc(NC(=O)C(c5ccsc5)N5CCCC5)cc34)cc2Cl)CC1 (stereo not shown) [Example A57]	< 50	100 to 500	–
O=C(Nc1ccc2[nH]nc(-c3ccc(N4CCOCC4)c(F)c3)c2c1)C(c1ccsc1)N1CCCC1 (stereo not shown) [Example A60, N-(3-(3-fluoro-4-morpholinophenyl)-1H-indazol-5-yl)-2-(pyrrolidin-1-yl)-2-(thiophen-3-yl)acetamide]	< 50	100 to 500	–
CCC(NC(=O)c1ccc2[nH]nc(-c3ccc(OC4CCN(C)CC4)cc3)c2c1)C1CCCCC1 (stereo not shown) [Example A69, N-(1-cyclohexylpropyl)-3-(4-((1-methylpiperidin-4-yl)oxy)phenyl)-1H-indazole-5-carboxamide]	< 50	100 to 500	–
O=C(Nc1ccc2[nH]nc(-c3ccc(NC4CCOCC4)cc3)c2c1)C(c1ccsc1)N1CCCC1 (stereo not shown) [Example A71, 2-(pyrrolidin-1-yl)-N-(3-(4-((tetrahydro-2H-pyran-4-yl)amino)phenyl)-1H-indazol-5-yl)-2-(thiophen-3-yl)acetamide]	< 50	< 100	–
CN1CCC(C(NC(=O)c2ccc3[nH]nc(-c4ccc(N5CCOCC5)cc4)c3c2)c2ccccc2)CC1 (stereo not shown) [Example A85, N-((1-methylpiperidin-4-yl)(phenyl)methyl)-3-(4-morpholinophenyl)-1H-indazole-5-carboxamide]	< 50	< 100	< 100
Cc1ccccc1CC(=O)Nc1ccc2[nH]nc(-c3ccc(OC4CCN(C)CC4)cc3)c2c1 [Example A92, N-(3-(4-(1-Methylpiperidin-4-yloxy)phenyl)-1H-indazol-5-yl)-2-o-tolylacetamide]	< 50	< 100	100 to 500
O=C(Nc1ccc2[nH]nc(-c3ccc(N4CCC(CO)CC4)cc3)c2c1)C(c1ccsc1)N1CCCC1 (stereo not shown) [Example A95, N-(3-(4-(4-(hydroxymethyl)piperidin-1-yl)phenyl)-1H-indazol-5-yl)-2-(pyrrolidin-1-yl)-2-(thiophen-3-yl)acetamide]	< 50	< 100	< 100
C[C@@H]1CCCN1[C@@H](C(=O)Nc1ccc2[nH]nc(-c3ccc(N4CCOCC4)cc3)c2c1)c1ccsc1 [Example A97, (R)-2-((R)-2-methylpyrrolidin-1-yl)-N-(3-(4-morpholinophenyl)-1H-indazol-5-yl)-2-(thiophen-3-yl)acetamide]	< 50	100 to 500	100 to 500
O=C(NC(c1ccsc1)C1CC1)c1ccc2[nH]nc(-c3ccc(N4CCC(O)CC4)cc3)c2c1 (stereo not shown) [Example A101, N-(cyclopropyl(thiophen-3-yl)methyl)-3-(4-(4-hydroxypiperidin-1-yl)phenyl)-1H-indazole-5-carboxamide]	< 50	–	–
O=C(Nc1ccc2[nH]nc(-c3ccc(OC4CCN(CCF)CC4)cc3)c2c1)C(c1ccsc1)N1CCCC1 (stereo not shown) [Example A102, N-(3-(4-((1-(2-fluoroethyl)piperidin-4-yl)oxy)phenyl)-1H-indazol-5-yl)-2-(pyrrolidin-1-yl)-2-(thiophen-3-yl)acetamide]	< 50	< 100	< 100
O=C(NC(c1ccsc1)C1CC1)c1ccc2[nH]nc(-c3ccc(OC4CCN(CCO)CC4)cc3)c2c1 (stereo not shown) [Example A117, N-(cyclopropyl(thiophen-3-yl)methyl)-3-(4-((1-(2-hydroxyethyl)piperidin-4-yl)oxy)phenyl)-1H-indazole-5-carboxamide]	< 50	< 100	< 100
COCCN1CCC(Oc2ccc(-c3n[nH]c4ccc(C(=O)N[C@H](C)c5ccccc5F)cc34)cc2)CC1 [Example A129, (R)-N-(1-(2-fluorophenyl)ethyl)-3-(4-((1-(2-methoxyethyl)piperidin-4-yl)oxy)phenyl)-1H-indazole-5-carboxamide]	< 50	100 to 500	100 to 500
CN1CCC(Oc2ccc(-c3n[nH]c4ccc(NC(=O)C(c5ccccc5)C5CCCC5)cc34)cc2)CC1 (stereo not shown) [Example A148, 2-cyclopentyl-N-(3-(4-((1-methylpiperidin-4-yl)oxy)phenyl)-1H-indazol-5-yl)-2-phenylacetamide]	< 50	100 to 500	100 to 500
COCCN1CCC(Oc2ccc(-c3n[nH]c4ccc(C(=O)NC(c5ccsc5)C5CCCC5)cc34)cc2)CC1 (stereo not shown) [Example A155, N-(cyclopentyl(thiophen-3-yl)methyl)-3-(4-((1-(2-methoxyethyl)piperidin-4-yl)oxy)phenyl)-1H-indazole-5-carboxamide]	< 50	100 to 500	100 to 500
COc1ccccc1C(C(=O)Nc1ccc2[nH]nc(-c3ccc(OC4CCN(C)CC4)cc3)c2c1)C1CCCC1 (stereo not shown) [Example A156, 2-cyclopentyl-2-(2-methoxyphenyl)-N-(3-(4-((1-methylpiperidin-4-yl)oxy)phenyl)-1H-indazol-5-yl)acetamide]	< 50	100 to 500	> 500
CN1CCC(Oc2ccc(-c3n[nH]c4ccc(NC(=O)C(c5ccccn5)C5CCCC5)cc34)cc2)CC1 (stereo not shown) [Example A179, 2-cyclopentyl-N-(3-(4-((1-methylpiperidin-4-yl)oxy)phenyl)-1H-indazol-5-yl)-2-(pyridin-2-yl)acetamide]	< 50	–	–
CC(C)C[C@H](NC(=O)c1ccc2[nH]nc(-c3ccc(N4C5COCC4CC(O)C5)cc3)c2c1)c1ccccn1 (stereo partly drawn) [Example A306, 3-(4-((1R,5S,7R)-7-hydroxy-3-oxa-9-azabicyclo[3.3.1]nonan-9-yl)phenyl)-N-((S)-3-methyl-1-(pyridin-2-yl)butyl)-1H-indazole-5-carboxamide]	< 50	–	–

— patent publication US9580390B2, “Indazole compounds as kinase inhibitors and method of treating cancer with same” (University Health Network, priority 2011, dated 2017)
